Assay [1] concerns the target T1, CDC25B (Homo sapiens, UniProt P30305).
T1 sequence (P30305 377-551 isoform P30305-2 limits assumed): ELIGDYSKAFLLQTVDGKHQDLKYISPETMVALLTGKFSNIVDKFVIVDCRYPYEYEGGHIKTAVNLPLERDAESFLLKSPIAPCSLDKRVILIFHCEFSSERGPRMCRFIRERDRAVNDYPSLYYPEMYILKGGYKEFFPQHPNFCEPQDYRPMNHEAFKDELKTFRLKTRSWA
Nature of the assay: Intrinsic fluorescence quenching of recombinant CDC25B catalytic domain (Stern-Volmer). It is filed as binding. The method, then:
Fluorescence spectra were recorded at 20 °C using a computer-assisted Cary Eclipse spectrofluorimeter (Varian, Palo Alto, CA, USA) equipped with an electronic temperature controller. The excitation wavelength was set at 280 nm and the excitation and emission slits were set at 10 and 20 nm, respectively. A 500 µL final volume of a 0.2 µM solution of CDC25B or CDC25B-C473S dissolved in 20 mM Tris•HCl, pH 7.8, 0.5 mM TCEP was directly prepared in the fluorimetric cuvette in the absence or in the presence of OMFP and/or some NPA derivatives. Serial pre-dilutions of the NPA derivatives or OMFP at increasing concentration were prepared in DMSO or methanol, respectively. Alongside, a convenient amount of the enzyme pre-dilution was prepared just before its usage for the experiment and stored on ice. When the combined effect of NPA derivative and OMFP was investigated, two enzyme pre-dilutions were prepared in the absence or in the presence of 5 µM OMFP. In order to evaluate the specific effect produced by any addition of solvent/ligand on the intrinsic fluorescence of the enzyme, 495 µL of the enzyme pre-dilution were placed in the fluorimetric cuvette and the relative spectrum was recorded; after the addition of 5 µL of each pre-dilution of solvent/ligand and fast mixing, the spectrum was recorded again. This procedure, repeated for each experimental point, allowed a normalisation of the specific effects produced by solvent/ligands. Furthermore, a correction was also applied for the little inner-filter effect due to the absorbance at 280 nm of the NPA derivative used at different concentrations; on the other hand, no correction was necessary for OMFP. All spectra, recorded at a scan speed of 120 nm/min, were normalised and corrected.

The target in assay [2] is T2, CDC25B (Homo sapiens, UniProt P30305).
T2 sequence (P30305 1-580): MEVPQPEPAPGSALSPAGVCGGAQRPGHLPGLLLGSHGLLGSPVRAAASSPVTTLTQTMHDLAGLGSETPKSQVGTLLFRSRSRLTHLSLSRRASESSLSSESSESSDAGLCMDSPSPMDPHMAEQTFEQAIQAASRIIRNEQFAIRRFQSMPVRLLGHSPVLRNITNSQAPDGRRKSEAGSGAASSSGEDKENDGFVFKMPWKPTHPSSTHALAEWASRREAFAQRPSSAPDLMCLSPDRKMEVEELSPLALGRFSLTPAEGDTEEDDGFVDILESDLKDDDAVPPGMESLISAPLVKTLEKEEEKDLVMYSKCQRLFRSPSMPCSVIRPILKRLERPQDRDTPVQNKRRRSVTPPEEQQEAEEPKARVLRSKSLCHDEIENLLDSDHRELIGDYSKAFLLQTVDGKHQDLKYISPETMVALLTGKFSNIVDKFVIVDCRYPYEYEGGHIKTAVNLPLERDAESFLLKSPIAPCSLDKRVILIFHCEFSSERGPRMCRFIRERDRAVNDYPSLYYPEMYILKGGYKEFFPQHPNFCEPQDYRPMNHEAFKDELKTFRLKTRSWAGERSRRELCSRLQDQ
Nature of the assay: Kinetic studies of CDC25B phosphatase inhibition (OMFP substrate). It is filed as biochemical. Conditions: putative from Lineweaver-Burk plots (ref 18), confirmed by the fluorescence studies of this work.

The test system of another assay is caspase-9 in A2058 cells. Nature of the assay: Caspase-9 fluorimetric activity assay in cell lysates. It is filed as cell-based, human. Conditions: 10 µM, 24 h. The method, then:
(§1) The caspase-3 and caspase-9 enzymatic activity was measured by using caspase-3 and -9 fluorimetric assay kits, respectively, according to the manufacturer’s protocol. Briefly, cells were seeded into 75 cm^2 plates (2 × 10^6 cells/plate) and after 24 h treated with 4a or 0.5% (v/v) DMSO for 24 h. At the end of incubation, cells were collected, washed with phosphate-buffered saline constituted by 10 mM Na2HPO4, 2 mM KH2PO4, pH 7.4, supplemented with 137 mM NaCl and 2.7 mM KCl (PBS), and finally lysed at 4 °C in the cell lysis buffer. Cell lysates were incubated with 50 µM DEVD-AFC or LEHD-AFC substrates at 37 °C for 2 h, to detect caspase-3 or caspase-9 activity, respectively, using a Cary Eclipse spectrofluorimeter. Excitation and emission wavelengths were set at 400 nm and 505 nm, respectively; both excitation and emission slits were set at 10 nm.

Another assay deals with caspase-9 in A375 cells. Described as above. Type of assay: cell-based, human. Conditions: 10 µM, 24 h. The method, then: as §1

With `CCOC(=O)c1cccc(Nc2cc(OC)cc3ccccc23)c1` [4a], the “KSV (Stern-Volmer constant)” value at CDC25B [1] (0.2 µM wild-type CDC25B, emission 357 nm, 20 °C, no OMFP) was 0.010 µM⁻¹. The Kd at CDC25B [1] (reciprocal of KSV, inhibitor concentration leading to 50% quenching of CDC25B emission, read-out: K′D of the complex, Free CDC25B•inhibitor) was over 50 µM. At CDC25B [2], the Inhibition mechanism entry is “uncompetitive”. The “enzymatic activity of caspase-9” value in the assay with caspase-9 in A2058 cells and with caspase-9 in A375 cells was “statistically significant increase” in each case.

Source of the values: publication PMC7580834, “Inhibition mechanism of naphthylphenylamine derivatives acting on the CDC25B dual phosphatase and analysis of the molecular processes involved in the high cytotoxicity exerted by one selected derivative in melanoma cells” (Journal of Enzyme Inhibition and Medicinal Chemistry, 2020).
